According to ChEMBL document CHEMBL3779840, “Discovery of 2-((3-Amino-4-methylphenyl)amino)-N-(2-methyl-5-(3-(trifluoromethyl)benzamido)phenyl)-4-(methylamino)pyrimidine-5-carboxamide (CHMFL-ABL-053) as a Potent, Selective, and Orally Available BCR-ABL/SRC/p38 Kinase Inhibitor for Chronic Myeloid Leukemia” (J Med Chem, 2016):

Experiments:
K562 = experiment: Antiproliferative activity against human K562 cells assessed as cell viability after 72 hrs by CellTiter-Glo or CCK-8 assay; type: functional; settings: K562, 72 h
BaF3 [1] = settings: Homo sapiens
Description: Inhibition of BCR/ABL p210-F317I mutant (unknown origin) expressed in mouse BA/F3 cells assessed as growth inhibition after 72 hrs by CellTiter-Glo or CCK-8 assay

[2] = Antiproliferative activity against human MEG01 cells assessed as cell viability after 72 hrs by CellTiter-Glo or CCK-8 assay; type: functional; settings: MEG-01, 72 h
[3] = Antiproliferative activity against […] CHL cells assessed as cell viability after 72 hrs by CellTiter-Glo or CCK-8 assay; type: cell-based, Cricetulus griseus; settings: chinese hamster
BaF3 [4] = settings: Homo sapiens; remark: listed apart in the source
Description: Inhibition of BCR/ABL p210-E255K mutant (unknown origin) expressed in mouse BA/F3 cells assessed as growth inhibition after 72 hrs by CellTiter-Glo or CCK-8 assay

[5] = molecular target: Tyrosine-protein kinase HCK (Homo sapiens) (UniProt P08631); settings: BaF3
Chain of Tyrosine-protein kinase HCK (Homo sapiens) (P08631 2-526 limits assumed): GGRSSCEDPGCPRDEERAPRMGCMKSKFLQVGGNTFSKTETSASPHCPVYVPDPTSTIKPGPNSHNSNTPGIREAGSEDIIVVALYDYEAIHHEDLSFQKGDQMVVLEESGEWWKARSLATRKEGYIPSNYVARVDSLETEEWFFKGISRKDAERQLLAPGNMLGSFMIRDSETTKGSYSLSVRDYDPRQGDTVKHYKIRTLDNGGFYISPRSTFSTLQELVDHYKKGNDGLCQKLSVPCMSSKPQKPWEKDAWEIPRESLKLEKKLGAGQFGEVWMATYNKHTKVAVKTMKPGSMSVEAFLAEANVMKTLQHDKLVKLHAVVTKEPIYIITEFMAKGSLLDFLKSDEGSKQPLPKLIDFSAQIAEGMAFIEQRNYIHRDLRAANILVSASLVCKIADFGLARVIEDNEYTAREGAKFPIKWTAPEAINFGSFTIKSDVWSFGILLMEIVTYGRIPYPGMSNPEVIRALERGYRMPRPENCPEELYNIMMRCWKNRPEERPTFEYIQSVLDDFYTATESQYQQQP
Description: Inhibition of TEL-HCK (unknown origin) expressed in mouse BA/F3 cells assessed as growth inhibition after 72 hrs by CellTiter-Glo or CCK-8 assay

HEL = experiment: Antiproliferative activity against human HEL cells assessed as cell viability after 72 hrs by CellTiter-Glo or CCK-8 assay; type: functional
MV4-11 = experiment: Antiproliferative activity against human MV4-11 cells assessed as cell viability after 72 hrs by CellTiter-Glo or CCK-8 assay; type: functional; settings: MV4-11, 72 h
BaF3 [6] = settings: Homo sapiens; remark: listed apart in the source
Description: Inhibition of BCR/ABL p210-T315I mutant (unknown origin) expressed in mouse BA/F3 cells assessed as growth inhibition after 72 hrs by CellTiter-Glo or CCK-8 assay

[7] = molecular target: Epithelial discoidin domain-containing receptor 1 (Homo sapiens, UniProt Q08345); settings: BaF3
Chain of Epithelial discoidin domain-containing receptor 1 (Q08345 whole entry, the tested form may be a part): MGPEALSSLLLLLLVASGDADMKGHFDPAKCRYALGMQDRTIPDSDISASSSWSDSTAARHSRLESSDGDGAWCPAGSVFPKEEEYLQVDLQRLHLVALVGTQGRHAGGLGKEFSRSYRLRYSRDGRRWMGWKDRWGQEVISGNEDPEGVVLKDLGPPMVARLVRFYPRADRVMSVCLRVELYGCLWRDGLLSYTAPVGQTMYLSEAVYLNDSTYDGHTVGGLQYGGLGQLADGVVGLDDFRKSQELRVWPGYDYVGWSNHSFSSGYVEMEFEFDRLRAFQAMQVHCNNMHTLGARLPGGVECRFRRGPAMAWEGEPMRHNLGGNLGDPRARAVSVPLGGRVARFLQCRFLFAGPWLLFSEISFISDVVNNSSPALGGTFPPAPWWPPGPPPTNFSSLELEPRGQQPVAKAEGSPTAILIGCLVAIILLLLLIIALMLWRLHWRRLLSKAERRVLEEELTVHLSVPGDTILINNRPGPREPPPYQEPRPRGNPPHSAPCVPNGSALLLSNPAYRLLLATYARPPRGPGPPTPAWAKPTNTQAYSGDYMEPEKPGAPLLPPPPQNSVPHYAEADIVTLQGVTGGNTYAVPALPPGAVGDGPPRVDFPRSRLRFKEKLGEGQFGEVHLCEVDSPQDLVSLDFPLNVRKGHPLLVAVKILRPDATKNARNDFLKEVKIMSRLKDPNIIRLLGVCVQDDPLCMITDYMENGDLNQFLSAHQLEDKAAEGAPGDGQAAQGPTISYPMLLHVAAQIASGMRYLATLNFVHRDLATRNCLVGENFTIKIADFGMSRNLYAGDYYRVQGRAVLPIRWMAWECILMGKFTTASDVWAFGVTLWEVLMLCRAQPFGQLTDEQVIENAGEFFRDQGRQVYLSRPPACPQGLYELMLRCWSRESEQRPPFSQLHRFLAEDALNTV
Description: Inhibition of TEL-DDR1 (unknown origin) expressed in mouse BA/F3 cells assessed as growth inhibition after 72 hrs by CellTiter-Glo or CCK-8 assay

[8] = Antiproliferative activity against human MOLM14 cells assessed as cell viability after 72 hrs by CellTiter-Glo or CCK-8 assay; type: functional; settings: MOLM-14, 72 h
[9] = molecular target: T1, Discoidin domain-containing receptor 2 (Homo sapiens) (UniProt Q16832); settings: BaF3
T1 sequence (whole entry): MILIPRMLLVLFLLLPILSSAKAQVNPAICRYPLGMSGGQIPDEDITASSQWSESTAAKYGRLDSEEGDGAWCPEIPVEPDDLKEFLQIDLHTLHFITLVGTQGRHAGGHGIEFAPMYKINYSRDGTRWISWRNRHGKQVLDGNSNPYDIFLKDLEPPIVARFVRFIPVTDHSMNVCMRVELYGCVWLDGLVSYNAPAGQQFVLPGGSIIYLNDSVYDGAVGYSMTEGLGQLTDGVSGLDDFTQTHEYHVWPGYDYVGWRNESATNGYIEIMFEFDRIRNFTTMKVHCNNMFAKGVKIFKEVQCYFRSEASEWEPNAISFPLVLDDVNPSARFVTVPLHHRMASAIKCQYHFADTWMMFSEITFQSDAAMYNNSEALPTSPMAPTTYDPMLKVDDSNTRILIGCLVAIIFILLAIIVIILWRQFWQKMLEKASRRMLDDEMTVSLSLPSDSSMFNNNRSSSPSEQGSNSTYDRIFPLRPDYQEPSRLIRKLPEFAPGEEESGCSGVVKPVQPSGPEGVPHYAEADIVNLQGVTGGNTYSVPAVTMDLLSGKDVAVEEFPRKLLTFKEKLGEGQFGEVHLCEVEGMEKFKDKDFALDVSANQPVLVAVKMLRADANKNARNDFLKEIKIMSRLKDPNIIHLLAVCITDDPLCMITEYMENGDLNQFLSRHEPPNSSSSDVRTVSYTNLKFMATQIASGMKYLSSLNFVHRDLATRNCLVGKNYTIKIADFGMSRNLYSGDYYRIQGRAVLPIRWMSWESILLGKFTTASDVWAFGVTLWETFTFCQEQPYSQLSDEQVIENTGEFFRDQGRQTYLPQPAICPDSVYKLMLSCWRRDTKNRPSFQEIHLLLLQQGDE
Description: Inhibition of TEL-DDR2 (unknown origin) expressed in mouse BA/F3 cells assessed as growth inhibition after 72 hrs by CellTiter-Glo or CCK-8 assay

[10] = Antiproliferative activity against mouse BA/F3 cells assessed as cell viability after 72 hrs by CellTiter-Glo or CCK-8 assay; type: cell-based, BaF3
[11] = Antiproliferative activity against human KU812 cells assessed as cell viability after 72 hrs by CellTiter-Glo or CCK-8 assay; type: functional; settings: KU812, 72 h
[12] = molecular target: Tyrosine-protein kinase Blk (Homo sapiens) (UniProt P51451); settings: BaF3
Chain of Tyrosine-protein kinase Blk (Homo sapiens) (P51451 2-505 limits assumed): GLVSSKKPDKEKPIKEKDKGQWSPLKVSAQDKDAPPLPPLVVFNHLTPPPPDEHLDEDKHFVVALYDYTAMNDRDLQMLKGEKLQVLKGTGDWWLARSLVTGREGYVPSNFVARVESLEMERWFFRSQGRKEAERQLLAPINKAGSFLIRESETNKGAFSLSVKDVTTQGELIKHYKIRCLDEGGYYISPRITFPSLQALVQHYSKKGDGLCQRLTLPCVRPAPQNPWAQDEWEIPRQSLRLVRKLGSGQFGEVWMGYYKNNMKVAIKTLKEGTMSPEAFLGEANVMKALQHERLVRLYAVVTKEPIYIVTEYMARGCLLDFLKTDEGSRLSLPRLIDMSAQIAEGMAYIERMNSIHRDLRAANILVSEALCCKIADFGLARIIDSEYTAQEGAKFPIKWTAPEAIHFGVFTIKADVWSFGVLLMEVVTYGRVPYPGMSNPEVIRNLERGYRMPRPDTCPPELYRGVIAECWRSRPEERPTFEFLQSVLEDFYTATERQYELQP
Description: Inhibition of TEL-BLK (unknown origin) expressed in mouse BA/F3 cells assessed as growth inhibition after 72 hrs by CellTiter-Glo or CCK-8 assay

[13] = Antiproliferative activity against human U937 cells assessed as cell viability after 72 hrs by CellTiter-Glo or CCK-8 assay; type: functional; settings: U-937, 72 h
[14] = molecular target: Tyrosine-protein kinase Lck (Homo sapiens) (UniProt P06239); settings: BaF3
Chain of Tyrosine-protein kinase Lck (Homo sapiens) (P06239 2-509 limits assumed): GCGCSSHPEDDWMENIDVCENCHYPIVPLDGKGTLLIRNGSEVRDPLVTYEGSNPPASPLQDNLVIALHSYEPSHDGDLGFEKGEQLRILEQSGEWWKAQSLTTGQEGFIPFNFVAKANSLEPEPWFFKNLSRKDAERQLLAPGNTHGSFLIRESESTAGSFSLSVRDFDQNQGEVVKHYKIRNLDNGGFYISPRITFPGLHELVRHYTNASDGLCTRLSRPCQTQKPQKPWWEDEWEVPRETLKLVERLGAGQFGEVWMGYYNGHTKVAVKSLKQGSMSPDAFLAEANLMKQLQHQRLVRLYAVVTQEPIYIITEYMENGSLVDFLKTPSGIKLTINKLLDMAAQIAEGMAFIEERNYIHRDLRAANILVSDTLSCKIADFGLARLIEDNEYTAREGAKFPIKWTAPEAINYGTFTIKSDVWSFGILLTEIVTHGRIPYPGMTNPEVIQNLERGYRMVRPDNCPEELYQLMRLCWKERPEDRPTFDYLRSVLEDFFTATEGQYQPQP
Description: Inhibition of TEL-LCK (unknown origin) expressed in mouse BA/F3 cells assessed as growth inhibition after 72 hrs by CellTiter-Glo or CCK-8 assay

[15] = molecular target: Proto-oncogene tyrosine-protein kinase Src (Homo sapiens, UniProt P12931); settings: BaF3
Chain of Proto-oncogene tyrosine-protein kinase Src (P12931 2-536 limits assumed): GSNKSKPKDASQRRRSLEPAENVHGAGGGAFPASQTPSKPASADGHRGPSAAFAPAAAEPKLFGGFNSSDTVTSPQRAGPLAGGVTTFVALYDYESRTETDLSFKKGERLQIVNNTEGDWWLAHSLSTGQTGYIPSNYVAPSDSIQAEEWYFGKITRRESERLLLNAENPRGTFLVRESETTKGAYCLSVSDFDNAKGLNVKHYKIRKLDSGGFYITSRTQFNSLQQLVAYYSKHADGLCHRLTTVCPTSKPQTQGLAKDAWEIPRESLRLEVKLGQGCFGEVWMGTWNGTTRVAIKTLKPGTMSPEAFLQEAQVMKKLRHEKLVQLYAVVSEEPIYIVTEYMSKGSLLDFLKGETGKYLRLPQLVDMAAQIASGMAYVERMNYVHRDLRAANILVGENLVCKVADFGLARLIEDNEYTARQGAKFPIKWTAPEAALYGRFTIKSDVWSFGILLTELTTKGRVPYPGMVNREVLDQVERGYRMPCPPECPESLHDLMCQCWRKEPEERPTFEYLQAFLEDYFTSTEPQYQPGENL
Description: Inhibition of TEL-SRC (unknown origin) expressed in mouse BA/F3 cells assessed as growth inhibition after 72 hrs by CellTiter-Glo or CCK-8 assay

## Cc1nc(Nc2ncc(C(=O)Nc3c(C)cccc3Cl)s2)cc(N2CCN(CCO)CC2)n1 [DASATINIB]
K562
  GI50: < 0.3 nM
BaF3 [1]
  GI50: 10 nM
[2]
  GI50: < 0.3 nM
[3]
  GI50 at 72 h: 270 nM
BaF3 [4]
  GI50: 17 nM
[5]
  GI50: 39 nM
HEL
  GI50: 5300 nM
MV4-11
  GI50: 3600 nM
BaF3 [6]
  GI50: 9940 nM
[7]
  GI50: 3000 nM
[8]
  GI50: 2300 nM
[9]
  GI50: 3000 nM
[10]
  GI50 at 72 h: > 10000 nM
[11]
  GI50: < 0.3 nM
[12]
  GI50: 5 nM
[13]
  GI50: > 10000 nM

## Cc1cn(-c2cc(NC(=O)c3ccc(C)c(Nc4nccc(-c5cccnc5)n4)c3)cc(C(F)(F)F)c2)cn1 [NILOTINIB]
K562
  GI50: 2 nM
BaF3 [1]
  GI50: 54.6 nM
[2]
  GI50: 16 nM
[3]
  GI50 at 72 h: 4200 nM
BaF3 [4]
  GI50: 21 nM
[14]
  GI50: 870 nM
[5]
  GI50: 4100 nM
HEL
  GI50: 3900 nM
MV4-11
  GI50: > 10000 nM
BaF3 [6]
  GI50: > 10000 nM
[8]
  GI50: > 10000 nM
[15]
  GI50: 470 nM
[9]
  GI50: 1400 nM
[10]
  GI50 at 72 h: 2100 nM
[11]
  GI50: 1 nM
[12]
  GI50: 1300 nM
[13]
  GI50: > 10000 nM

## Cc1ccc(NC(=O)c2ccc(CN3CCN(C)CC3)cc2)cc1Nc1nccc(-c2cccnc2)n1 [IMATINIB]
K562
  GI50: 140 nM
BaF3 [1]
  GI50: 855 nM
[2]
  GI50: 240 nM
[3]
  GI50 at 72 h: > 10000 nM
BaF3 [4]
  GI50: 1930 nM
[5]
  GI50: 9700 nM
HEL
  GI50: 5300 nM
MV4-11
  GI50: > 10000 nM
BaF3 [6]
  GI50: > 10000 nM
[8]
  GI50: > 10000 nM
[9]
  GI50: 7700 nM
[10]
  GI50 at 72 h: 6700 nM
[11]
  GI50: 160 nM
[12]
  GI50: 4100 nM
[13]
  GI50: > 10000 nM
